{"source": "patent US20110064773A1", "about": "“PHARMACEUTICAL COMPOSITIONS COMPRISING A THYROID HORMON AND THEIR THERAPEUTIC USE” (UNIVERSITE JOSEPH FOURIER, priority 2007, published 2011)", "assay_type_in_all_cases": "in vivo, rat", "key": {"ZDF rats [1]": {"tested_on": "ZDF rats", "assay": "Indirect calorimetry (EE, RQ) of ZDF rats", "source_text": "(§1) Energy expenditure as well as the nature of substrate oxidized (carbohydrates or lipids) were investigated by indirect calorimetry. This principle is based on the determinations of CO2 release (VCO2) and O2 consumption (VO2) by each animal. It assumes that O2 is entirely involved in substrate oxidation in the respiratory chain (leading to water production) while CO2 release is related to substrate decarboxylation (in the Krebs' cycle). These measurements allow assessing energy expenditure (EE) and respiratory quotient ([…], RQ). EE represent the absolute energy dissipation during rest and activity. RQ is a relative measurement indicating the ratio of carbohydrate versus lipid involved in oxidative pathway. A ratio of 1.0 indicates exclusive carbohydrate oxidation while a ratio of 0.7 indicates exclusive lipid oxidation. Each value between these two extreme values indicates the relative proportion of each substrate (of note protein oxidation was not evaluated). As an example, RQ approaches 0.7 during fasting, indicating lipid oxidation, conversely after feeding RQ increases close to 1 indicating carbohydrate oxidation resulting from food intake and blood insulin rise. Likewise, animals fed high-carbohydrate diets have higher RQs than those fed high-fat diets.\n(§2) The indirect calorimetry system (Panlab, Barcelona, Spain) consists of cages, pumps, flow controllers, valves, and analyzers. It is computer-controlled in order to sequentially measure O2 and CO2 concentrations as well as air flow in four separate cages allowing four simultaneous determinations. Rats are isolated in one of the four metabolic chambers, and room air is used as a reference to monitor ambient O2 and CO2 concentrations periodically.\n(§3) At predefined intervals, the computer sends a signal to store differential CO2 and O2 concentrations, flow rate, allowing computing VCO2, VO2, RQ, and EE (Weir equation) with data acquisition hardware (Metabolism, Panlab, Barcelona, Spain)."}, "Wistar rats [2]": {"tested_on": "Wistar rats", "assay": "Growth rate (body weight) and food intake of Wistar rats", "conditions": "ultra low dose 0.25 μg/100 g BW, vs placebo"}, "[3]": {"tested_on": "mitochondrial glycerol 3-phosphate dehydrogenase (mGPdH)", "assay": "Mitochondrial glycerol 3-phosphate dehydrogenase (mGPdH) activity in liver mitochondria of treated rats", "conditions": "Wistar rats; for Mitochondrial GPdH activity: 2.5 μg/100 g continuous, 21 days", "procedure": "Mitochondrial glycerol 3-phosphate dehydrogenase (mGPdH) activity was measured on the supernatant of isolated mitochondria after three cycles of freezing-thawing. Forty μg of mitochondria were incubated in a KH2PO4/K2HPO4 buffer (50 mM, pH 7.5) containing 9.3 μM of antimycin A, 5 μM of rotenone and decylubiquinone (50 μM). The reduction of 50 μM dichloro-indophenol (DCIP) by mGPDH was measured spectrophotometrically at 600 nm at 37° C. and enzymatic activity was expressed as μmol·min^−1·mg prot^−1."}, "Wistar rats [4]": {"tested_on": "Wistar rats", "assay": "Oral glucose tolerance test (OGTT) and pancreas mass in non-diabetic Wistar rats", "conditions": "2.5 μg/100 g BW, vs placebo", "procedure": "Wistar rats are non-diabetic, non-obese without insulin-resistance, however like in humans, they tend to get slightly obese and insulin resistant with age. However this is supposed to be “physiological”.\nThe glucose resistance of these animals was tested by an oral glucose tolerance test (OGTT). Animals were fed with 2 g/kg BW of glucose and the Glucose concentration and Insulin concentration in blood were measured."}, "Wistar rats [5]": {"tested_on": "Wistar rats", "assay": "Plasma concentrations of glucose, triglycerides, cholesterol, FFA and HDL in Wistar rats", "conditions": "for Glycerol (FIG. 60C), plasma / HDL (FIG. 60D), plasma: 21 days", "source_text": "These measurements were done on venous blood of the rats the day of the sacrifice.\nAt the end of the experimental period, animals were sacrificed by decapitation, in order to avoid the well-known effects of general anesthetics on mitochondrial metabolism. Blood samples were immediately collected and plasma was frozen for subsequent determination of serum metabolites and hormones. Liver, muscles and fat depots were quickly excised and weighed. Liver median lobe was rapidly freeze-clamped. Muscles (plantaris, soleus and gastrocnemius) were frozen in isopentane precooled in liquid nitrogen. Mesenteric fat consisted of adipose tissue surrounding the gastro-intestinal tract from the gastro-oesophageal sphincter to the end of the rectum with special care taken in distinguishing and removing the pancreas. Retroperitoneal fat pad was taken as the distinct depot behind each kidney along the lumbar muscles. Epididymal fat consisted of adipose tissue on top of the epididymis. For subcutaneous depot measurement, a rectangular piece of skin was taken on the right side of each animal from the median line of the abdomen between the spine and the right hip to the first rib. Interscapular brown adipose tissue was removed and dissected free from adjacent muscles and white adipose tissue. The heart ventricles, the right kidney and the spleen were also excised, weighed and frozen.\nGlucose and 3-hydroxybutyrate (3-HB) were measured enzymatically and non esterified fatty acid (NEFA) by colorimetric assay (Wako Chemicals).\nTriglycerides and cholesterol were measured by classical routine automate apparatus."}, "Wistar rats [6]": {"tested_on": "Wistar rats", "assay": "Indirect calorimetry (energy expenditure, respiratory quotient) of Wistar rats", "conditions": "for Energy expenditure and respiratory quotient (metabolic activity): 2.5 μg/100 g continuous, 21 days; for Energy expenditure (EE, metabolism): 25 μg/100 g BW", "source_text": "as §1, §2, §3"}, "ZDF rats [7]": {"tested_on": "ZDF rats", "assay": "Body weight and food intake of ZDF rats", "conditions": "2.5 μg/100 g BW/day, 21 days", "procedure": "Adult male rat bred in the animal room facilities of Laboratory of Fundamental and Applied Bioenergetics (Wistar strain) or purchased from Charles-River Laboratories, Domaine des oncins, L'ARBRESLE France [(genetically obese normoglycemic (Zucker or Fa/Fa) or diabetic (ZDF)] were caged individually in stainless steel hanging cages and maintained in a 22° C., 50±10% relative humidity and 12 h:12 h light:dark environment. All animals were fed ad libitum with a standard rat chow (Safe A04, Villemoisson, France) and tap water. Body mass and food intake were recorded twice/thrice a week and fresh food was provided at the same time to ensure minimal disturbance to the animals' food behavior.\nThen ZDF rats were treated with low doses of rT3 for 21 days (2.5 μg/100 g BW/day) and the glycaemia, insulinaemia were measured after 8, 16 and 21 days."}, "[8]": {"conditions": "Wistar rats, high dosage 25 μg/100 g BW"}, "[9]": {"conditions": "Wistar rats, high dose 250 μg/kg BW/day, day of sacrifice, vs placebo"}, "[10]": {"conditions": "Wistar rats, low dosage 2.5 μg/100 g BW"}, "[11]": {"conditions": "25 μg/100 g BW pellet, vs placebo"}}, "note": "Entries after “also recorded” stand apart in the source; their conditions may differ.", "data": [{"compound": "N[C@@H](Cc1ccc(Oc2cc(I)c(O)c(I)c2)c(I)c1)C(=O)O", "note": "[rT3, 3′,5′,3-triiodothyronine]", "values": [{"measurement": "Energy expenditure", "setting": "ZDF rats [1]; 2.5 μg/100 g BW, vs placebo", "result": "enhanced"}, {"measurement": "Respiratory quotient (RQ)", "setting": "ZDF rats [1]; 2.5 μg/100 g BW, vs placebo", "result": "enhanced"}, {"measurement": "Energy expenditure, enhancement", "setting": "ZDF rats [1]; low dose of rT3", "result": "+50%"}, {"measurement": "Body weight", "setting": "Wistar rats [2]", "result": "also reduce the body weight"}, {"measurement": "Enzymatic activity of mitochondrial glycerol-3-phosphate dehydrogenase", "setting": "[3]; liver mitochondria, high dose 25 μg/100 g", "result": "significantly increased"}, {"measurement": "Enzymatic activity of mitochondrial glycerol-3-phosphate dehydrogenase (mGPdH)", "setting": "[3]; liver mitochondria, low dose 2.5 μg/100 g, sub-cutaneous pellet", "result": "significantly increased; also recorded: more enhanced"}, {"measurement": "Mitochondrial GPdH activity", "setting": "[3]; intra-peritoneal pump", "result": "enhanced"}, {"measurement": "Mitochondrial GPdH activity", "setting": "[3]; sub-cutaneous pump", "result": "enhanced"}, {"measurement": "AUC of the glucose concentration after OGTT", "setting": "Wistar rats [4]; 2 g/kg glucose, 3 hours", "result": "slightly reduced, however not significantly"}, {"measurement": "AUC of the insulin concentration after OGTT", "setting": "Wistar rats [4]; 2 g/kg glucose, 3 hours", "result": "significantly lower"}, {"measurement": "Pancreas mass", "setting": "Wistar rats [4]", "result": "moderate, albeit significant, increase"}, {"measurement": "Cholesterol plasmatic concentration", "setting": "Wistar rats [5]; Wistar rats, 250 μg/kg BW/day, day of sacrifice, vs placebo", "result": "significantly lower"}, {"measurement": "Glycerol (FIG. 60C), plasma", "setting": "Wistar rats [5]; [8]", "result": "reduction"}, {"measurement": "HDL (FIG. 60D), plasma", "setting": "Wistar rats [5]; [8]", "result": "reduction"}, {"measurement": "Plasma free fatty acids (FFA)", "setting": "Wistar rats [5]; [9]", "result": "higher; also recorded: stimulates the liberation of FFA"}, {"measurement": "Triglycerides plasmatic concentration", "setting": "Wistar rats [5]; [9]", "result": "significantly lower; also recorded: degradation of triglycerides"}, {"measurement": "Glycerol (FIG. 60C), plasma", "setting": "Wistar rats [5]; [10]", "result": "reduction"}, {"measurement": "HDL (FIG. 60D), plasma", "setting": "Wistar rats [5]; [10]", "result": "reduction"}, {"measurement": "Fasting glucose plasmatic concentration", "setting": "Wistar rats [5]; normal (non diabetic) Wistar rats, 250 μg/kg BW/day, day of sacrifice, vs placebo", "result": "slightly increased"}, {"measurement": "Energy expenditure and respiratory quotient (metabolic activity)", "setting": "Wistar rats [6]; intra-peritoneal pump", "result": "increase of the metabolic activity"}, {"measurement": "Energy expenditure and respiratory quotient (metabolic activity)", "setting": "Wistar rats [6]; sub-cutaneous pump", "result": "increase of the metabolic activity"}, {"measurement": "Respiratory quotient (RQ) during the day (diurnal period)", "setting": "Wistar rats [6]; [11]", "result": "almost identical to placebo"}, {"measurement": "Respiratory quotient (RQ) during the night", "setting": "Wistar rats [6]; [11]", "result": "higher"}, {"measurement": "Energy expenditure (EE, metabolism)", "setting": "Wistar rats [6]; daily intra-peritoneal injection", "result": "do no modify the metabolism"}, {"measurement": "Energy expenditure (EE, metabolism)", "setting": "Wistar rats [6]; daily per os", "result": "do no modify the metabolism"}, {"measurement": "Energy expenditure (EE, metabolism)", "setting": "Wistar rats [6]; daily sub-cutaneous injection", "result": "do no modify the metabolism"}, {"measurement": "Energy expenditure (EE, metabolic expenses)", "setting": "Wistar rats [6]; 25 μg/100 g BW/day, continuous subcutaneous pellet, 24 h calorimetry", "result": "enhanced metabolic expanses"}, {"measurement": "Respiratory quotient (RQ)", "setting": "Wistar rats [6]; 25 μg/100 g BW/day, continuous subcutaneous pellet, after 900 min", "result": "significant difference from the placebo treated animals"}, {"measurement": "Energy expenditure (EE)", "setting": "Wistar rats [6]; high dose 25 μg/100 g BW", "result": "significantly enhance"}, {"measurement": "Respiratory quotient (RQ)", "setting": "Wistar rats [6]; high dose 25 μg/100 g BW, vs placebo", "result": "increase"}, {"measurement": "Respiratory quotient (RQ)", "setting": "Wistar rats [6]; low dose 2.5 μg/100 g BW, vs placebo", "result": "increase"}, {"measurement": "Respiratory quotient (RQ)", "setting": "Wistar rats [6]; ultra low dose 0.25 μg/100 g BW, vs placebo", "result": "decrease"}, {"measurement": "Appetite (food intake)", "setting": "ZDF rats [7]", "result": "not associated with a loose of appetite"}, {"measurement": "Animal mass (body weight)", "setting": "ZDF rats [7]; vs placebo", "result": "slimmer; also recorded: reduced"}]}]}
